Experimental data from patent US8703158B2, “Theobromine for the treatment of cough” (Biocopea Limited, priority 2009, dated 2014).

How the values were obtained:
[1] = observations of behaviour and health of dosed animals; details: codeine 25 mg/kg i.p.; reduction in movement in exposure chamber
Procedure: Guinea pigs were dosed intra-tracheally with theobromine or vehicle, orally with theobromine and intra-peronteneally with codeine. All pre-treatments were administered at t−30 min prior to citric acid exposure.

[2] = test system: citric acid-induced cough responses; experiment: citric acid-induced cough in guinea pigs (antitussive activity); type: in vivo, guinea pig; details: for mean number of citric acid-induced coughs / onset time to the first cough: 0.5 h pretreatment; for mean number of citric acid-induced coughs: vehicle 26±4
Procedure: The aim of this Example is to provide an assessment of the antitussive activity of intra-tracheally (i.t.) or orally dosed (p.o.) administered theobromine (3-30 mg/kg) compared to the positive control codeine (25 mg/kg, i.p.) against irritant-induced cough responses.
Thirty-six guinea pigs were randomly allocated to one of the six treatment groups (see Table 1) according to the blinding code.

Structure (SMILES)	behaviour of the animals (sedation) [1]	mean number of citric acid-induced coughs ([2]; codeine 25 mg/kg i.p., citric acid 1 M, 10 min exposure + 5 min recovery) [coughs]	onset time to the first cough ([2]; codeine 25 mg/kg i.p., vehicle 71±26 s) [s]	inhaled dose giving equivalent anti-tussive effect, as fraction of the oral dose ([2]; citric acid-induced cough model, inhaled (i.t.) versus oral)	mean number of citric acid-induced coughs ([2]; theobromine 10 mg/kg i.t.) [coughs]	onset time to the first cough ([2]; theobromine 30 mg/kg p.o., versus vehicle control (71±26 s))	effect on the total number of coughs ([2]; theobromine 3-30 mg/kg i.t., local administration)
COc1ccc2c3c1O[C@H]1[C@@H](O)C=C[C@H]4[C@@H](C2)N(C)CC[C@@]341 [codeine]	slight sedation	5±1	337 ± 51	–	–	–	–
Cn1cnc2c1c(=O)[nH]c(=O)n2C [theobromine]	–	–	–	⅓	10.33±2	not significantly increased	significant dose-dependant effect
